Laboratory results taken from PubChem BioAssay AID588577 (Sanford-Burnham Center for Chemical Genomics, 2011).
Activity calls are given as the source filed them. How the calls were made is not given here.

Target: Caspase-3 (Homo sapiens) + Caspase-9 (Homo sapiens) (UniProt P42574+P55211)
Test: caspase-9/caspase-3 cascade inhibitors, SAR follow-up, selectivity assay for Apaf-1 inhibitor project, biochemical, fluorescence (AID 588577)
Conditions: recombinant LZ-caspase-9 activating caspase-3, fluorogenic substrate

Sequence of Caspase-3 (Homo sapiens) + Caspase-9 (Homo sapiens) (P42574 whole entry, looked up): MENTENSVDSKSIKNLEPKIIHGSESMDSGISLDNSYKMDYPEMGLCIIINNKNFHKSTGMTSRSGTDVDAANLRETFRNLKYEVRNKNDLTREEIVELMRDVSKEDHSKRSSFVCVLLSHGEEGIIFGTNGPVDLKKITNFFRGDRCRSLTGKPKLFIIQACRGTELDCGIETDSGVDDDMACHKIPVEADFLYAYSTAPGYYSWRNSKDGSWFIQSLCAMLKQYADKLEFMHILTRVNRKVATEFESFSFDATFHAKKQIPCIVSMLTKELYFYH
Sequence of Caspase-3 (Homo sapiens) + Caspase-9 (Homo sapiens) (P55211 whole entry, looked up): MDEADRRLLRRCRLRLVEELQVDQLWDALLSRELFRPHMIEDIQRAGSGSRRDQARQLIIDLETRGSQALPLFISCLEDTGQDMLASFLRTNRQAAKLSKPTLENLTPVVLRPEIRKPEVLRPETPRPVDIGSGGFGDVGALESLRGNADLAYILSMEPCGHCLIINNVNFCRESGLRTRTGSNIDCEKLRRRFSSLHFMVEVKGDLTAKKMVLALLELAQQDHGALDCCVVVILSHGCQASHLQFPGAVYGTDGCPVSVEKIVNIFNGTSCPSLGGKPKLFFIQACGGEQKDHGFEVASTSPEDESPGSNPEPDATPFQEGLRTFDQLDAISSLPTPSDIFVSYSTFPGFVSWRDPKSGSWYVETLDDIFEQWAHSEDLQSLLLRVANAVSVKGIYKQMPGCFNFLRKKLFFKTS

| SMILES | IC50 |
| --- | --- |
| Cc1ccc2c(c1)C(=O)c1nc3ccccc3c(=O)n1-2 | > 100 µM (inactive) |
| COc1ccc(N2C(=O)CC3(CC(c4ccc(F)cc4)=NO3)C2=O)cc1 (stereo not given) | 37.5 µM |
| O=C1c2cc(Cl)ccc2-n2c1nc1ccccc1c2=O | 89.6 µM |
| CCN(CC)CCOC(=O)c1ccc(N/C=C(\C#N)c2nc(-c3ccc(Br)cc3)cs2)cc1 | > 100 µM (inactive) |
| CCN(CC)CCOC(=O)c1ccc(N/C=C(\C#N)c2nc(-c3ccc(Cl)c(Cl)c3)cs2)cc1 | 72 µM |
| O=C(Nc1ccc2nc(-c3cccs3)[nH]c2c1)c1cccs1 | > 100 µM (inactive) |
| O=C(Nc1ccc(-c2nc3ccc(NC(=O)c4cccs4)cc3[nH]2)cc1)c1cccs1 | > 100 µM (inactive) |
| CCN(CC)CCOC(=O)c1ccc(N/C=C(/C#N)c2nc(-c3ccc(OC)c(OC)c3)cs2)cc1 | > 100 µM (inactive) |
| CCN(CC)CCOC(=O)c1ccc(N/C=C(\C#N)c2nc(-c3cccs3)cs2)cc1 | > 100 µM (inactive) |
| Cc1nc2ccc(-c3nc4ccc(NC(=O)c5cccs5)cc4[nH]3)cc2[nH]1 | > 100 µM (inactive) |

The remaining lines, values ahead:

| IC50 | SMILES |
| --- | --- |
| > 100 µM (inactive) | O=C(Nc1ccc2c(c1)C(=O)NC2=O)c1nc2ccccc2s1 |
| > 100 µM (inactive) | O=C(Nc1ccc2nc(-c3ccc(Br)o3)[nH]c2c1)c1cccs1 |
| 98.8 µM | Cn1cc(C(CC(=O)c2ccc(C3CCCCC3)cc2)C(=O)O)c2ccccc21 (stereo not given) |
| > 100 µM (inactive) | CCN(CC)CCOC(=O)c1ccc(N/C=C(/C#N)c2nc(-c3ccc4c(c3)OCO4)cs2)cc1 |
| > 100 µM (inactive) | Cc1ccc(-c2nc3ccc(NC(=O)c4cccs4)cc3[nH]2)o1 |
| 89.7 µM | Cc1cc(NC(=O)C2CC2)sc1C(=O)Nc1ccc2nc(-c3cc(F)ccc3F)[nH]c2c1 |
| > 100 µM (inactive) | CCN(CC)CCOC(=O)c1ccc(N/C=C(/C#N)c2nc(-c3cc4ccccc4oc3=O)cs2)cc1 |
| > 100 µM (inactive) | CCN(CC)CCOC(=O)c1ccc(N/C=C(/C#N)c2nc(-c3ccc(OC)cc3)cs2)cc1 |
| 85.3 µM | Cn1cc(C(CC(=O)c2ccc(C(C)(C)C)cc2)C(=O)O)c2ccccc21 (stereo not given) |
| > 100 µM (inactive) | CC(=O)c1ccc(C(=O)Nc2ccc3nc(C)[nH]c3c2)s1 |
